EP0059645A1, “Method and kit for identification of beta-lactamases” (NATIONAL RESEARCH DEVELOPMENT CORPORATION, priority 1981, dated 1982)
Marks after values point to notes of the source that are not given here.

Key:
Test in all cases: Competitive assay with nitrocefin (RSAI)
[1] = biological target: T1, Chromosomal, induced beta-lactamase enzyme (Pseudomonas aeruginosa, UniProt P24735); format: biochemical, Ps.aerug. 1937E + ampicillin
T1 construct: Normally, therefore, the beta-lactamase has to be extracted from the cells for the purpose of the present invention; endogenous in cells; host or cells: Pseudomonas aeruginosa 1937E grown with ampicillin

[2] = biological target: Chromosomal, hyper-induced beta-lactamase enzyme (Escherichia coli, UniProt P00811); format: biochemical, E. coli SNU35; design: Normally, therefore, the beta-lactamase has to be extracted from the cells for the purpose of the present invention; endogenous in cells; host or cells: E. coli SNU 35 (artificially produced strain)
[3] = biological target: SHV-1 (Escherichia coli, UniProt P0AD63); format: biochemical, E. coli 2008E; design: the beta-lactamase has to be extracted from the cells for the purpose of the present invention; made in house; host or cells: E. coli 2008E (crude cell extract)
[4] = biological target: PSE-2 (Pseudomonas aeruginosa, UniProt P14489); format: biochemical, Ps.aerug. 1973E; design: Normally, therefore, the beta-lactamase has to be extracted from the cells for the purpose of the present invention; endogenous in cells
[5] = biological target: TEM-1 (Escherichia coli, UniProt P62593); format: biochemical, E. coli 2136E; design: the beta-lactamase has to be extracted from the cells for the purpose of the present invention; made in house; host or cells: E. coli 2136E (plasmid-bearing strain; crude cell extract)
[6] = tested on: PSE-3; format: biochemical, Ps.aerug. 1920E
[7] = biological target: OXA-3 (Pseudomonas aeruginosa, UniProt Q51429); format: biochemical, E. coli R57B; design: Normally, therefore, the beta-lactamase has to be extracted from the cells for the purpose of the present invention; endogenous in cells
[8] = biological target: OXA-1 (Escherichia coli, UniProt P13661); format: biochemical, E. coli 1527E; design: the beta-lactamase has to be extracted from the cells for the purpose of the present invention; made in house; host or cells: E. coli 1527E according to the earlier reading (crude cell extract)
[9] = tested on: K1073; format: biochemical, Klebsiella 1073
Description: (§1) It is convenient to express the results in terms of a Relative Substrate Affinity Index (RSAI) value.
(§2) RSAI = Concentration of competing substrate which gives 50% inhibition of ring-opening hydrolysis of the chromogenic substrate
(§3) Concentration of chromogenic substrate in the assay A high RSAI value therefore indicates a low affinity of the beta-lactamase for that competing substrate, and therefore predicts resistance of a beta-lactam competing substrate to hydrolysis by the beta-lactamase. Low RSAI values, in contrast, predict sensitivity to hydrolysis by a beta-lactamase.
(§4) Beta-lactam antibiotics which bind to the TEM-2 enzyme compete with nitrocefin in the assay. […] . This concentration of ampicillin is a direct estimate of the relative affinity of the TEM-2 enzyme for ampicillin. […] . The RSAI value was therefore 1.3.

[10] = biological target: PSE-1 (Pseudomonas aeruginosa, UniProt Q03170); format: biochemical, Ps.aerug. 1937E; design: Normally, therefore, the beta-lactamase has to be extracted from the cells for the purpose of the present invention; endogenous in cells
[11] = biological target: OXA-2 (Escherichia coli, UniProt P0A1V9); format: biochemical, E. coli R46; design: the beta-lactamase has to be extracted from the cells for the purpose of the present invention; made in house; host or cells: E. coli carrying R46 according to the earlier reading (crude cell extract)
[12] = tested on: HMS-1; format: biochemical, E. coli 1946
[13] = biological target: PSE-4 (Pseudomonas aeruginosa, UniProt P16897); format: biochemical, Ps.aerug. 1559E; design: Normally, therefore, the beta-lactamase has to be extracted from the cells for the purpose of the present invention; endogenous in cells
[14] = biological target: TEM-2 (Escherichia coli, UniProt P62593, Q37K); format: biochemical, E. coli 1725E
Description: as §1, §2, §3, §4

[15] = tested on: K17; format: biochemical, Klebsiella 17
Description: as §1, §2, §3, §4

[16] = tested on: K10317; format: biochemical, K.aerog. 10317
Description: as §1, §2, §3, §4

[17] = biological target: T2, Chromosomal, constitutive beta-lactamase enzyme (Enterobacter cloacae, UniProt P05364); format: biochemical, E. cloacae
T2 construct: Normally, therefore, the beta-lactamase has to be extracted from the cells for the purpose of the present invention; endogenous in cells

Row | Structure (SMILES) | RSAI [1] | RSAI [2] | RSAI [3] | RSAI [4] | RSAI [5] | RSAI [6] | RSAI [7] | RSAI [8] | RSAI [9] | RSAI [10] | nature of the binding to the enzyme [10] | RSAI [11] | RSAI [12] | RSAI [13] | nature of the binding to the enzyme [13] | RSAI [14] | RSAI [15] | RSAI [16] | RSAI [17]
1 | O=C(O)[C@H]1/C(=C/CO)O[C@@H]2CC(=O)N21 [Clavulanic acid] | >40 | 4 | 0.006* | 0.4 | 0.003* | 0.014 | 1.6* | 0.02* | 0.004* | 0.0001 | reversibly | 0.9* | 0.006* | 0.004* | irreversibly | 0.002* | 0.004* | 0.004* | 50
2 | CC1(C)S[C@@H]2[C@H](NC(=O)[C@H](C(=O)O)c3ccsc3)C(=O)N2[C@H]1C(=O)O [Ticar-cillin, ticarcillin] | 0.0065 | 0.001 | 0.23 | 2.4 | 0.035 | 2 | 12 | 0.65 | 0.485 | 0.63 |  | 26 | 0.175 | 0.65 |  | 0.49 | 0.25 | 0.48 | 0.0008*
3 | CC1(C)S[C@@H]2[C@H](NC(=O)Cc3ccccc3)C(=O)N2[C@H]1C(=O)O [Peni-cillin G, Penicillin G] | 0.13 | 0.18 | 1 | 0.2 | 3 | 0.3 | 0.4 | 0.2 | 2 | 0.6 |  | 0.6 | 0.5 | 0.48 |  | 1 | 1.2 | 2.2 | 0.08
4 | CC1(C)S[C@@H]2[C@H](NC(=O)[C@H](N)c3ccc(O)cc3)C(=O)N2[C@H]1C(=O)O [Amoxy-cillin, amoxycillin] | 0.035 | 0.02 | 2.8 | 2.2 | 1.3 | 1.5 | 8.6 | 1.2 | 1.7 | 0.9 |  | 8 | 0.8 | 1 |  | 2.2 | 1.3 | 7 | 0.05
5 | CC(=O)OCC1=C(C(=O)O)N2C(=O)[C@@H](NC(=O)Cc3cccs3)[C@H]2SC1 [Cephalo-thin, Cephalothin] | 0.7 | 0.8 | 7 | 0.54 | 10 | 0.76 | 0.4 | 4 | 5.8 | 4 |  | 0.7 | 1 | 6 |  | 15 | 1.8 | 7 | 0.6
6 | C[C@@H](O)[C@H]1C(=O)N2C(C(=O)O)=C(SCCN=CN)C[C@H]12 [MK 0787 (N-Formimidoyl-thienamycin), N-Formimidoyl-thienamycin] | 0.015 | 2 | 1.2 | 0.08 | 0.1 | 0.5 | 0.0016* | 0.6* | 1.9 | 19.4 |  | 0.005* | 1.2 | 15 |  | 0.1 | 2.1 | 0.24 | 0.03
7 | CC1(C)S[C@@H]2[C@H](NC(=O)C(C(=O)O)c3ccccc3)C(=O)N2[C@H]1C(=O)O (stereo partly drawn) [Carbeni-cillin, carbenicillin] | 0.008 | 0.00005* | 0.5 | 5.5 | 0.6 | 1.35 | 12 | 0.5 | 0.5 | 1.4 |  | 15 | 0.09 | 3 |  | 0.4 | 0.4 | 0.7 | 0.0003*
8 | CO/N=C(\C(=O)N[C@@H]1C(=O)N2C(C(=O)O)=C(COC(N)=O)CS[C@H]12)c1ccco1 [Cefuroxime] | 0.0001 | 0.002 | 20 | 1.7 | 50 | 12 | 0.003 | 10 | 12 | 50 |  | 3.6 | 16 | 34 |  | 40 | 2.3 | 14 | 0.0002
